Laboratory results: PMC4619380, “Nicotinic Activity of Arecoline, the Psychoactive Element of "Betel Nuts", Suggests a Basis for Habitual Use and Anti-Inflammatory Activity” (PLoS ONE, 2015)
Entries after “also recorded” stand apart in the source; their conditions may differ. Read-outs that look alike come from different tables or passages of the source. Marks after values point to notes of the source that are not given here.

Experiments:
human α7 nAChR = target: T1, human α7 nAChR (Homo sapiens, UniProt P36544); assay: Two-electrode voltage clamp of Xenopus oocytes expressing α7 nAChR (co-injected with RIC-3); format: cell-based; conditions: for activation of α7 in the presence of PNU-120596: co-applied with 10 μM PNU-120596; for activation of α7 when applied alone (absence of PAM): no PNU-120596, compared to 60 μM ACh controls; for EC50: normalized to 60 μM ACh controls
T1 construct: host or cells: Xenopus laevis oocytes injected with cRNA
T1 sequence (P36544 23-502): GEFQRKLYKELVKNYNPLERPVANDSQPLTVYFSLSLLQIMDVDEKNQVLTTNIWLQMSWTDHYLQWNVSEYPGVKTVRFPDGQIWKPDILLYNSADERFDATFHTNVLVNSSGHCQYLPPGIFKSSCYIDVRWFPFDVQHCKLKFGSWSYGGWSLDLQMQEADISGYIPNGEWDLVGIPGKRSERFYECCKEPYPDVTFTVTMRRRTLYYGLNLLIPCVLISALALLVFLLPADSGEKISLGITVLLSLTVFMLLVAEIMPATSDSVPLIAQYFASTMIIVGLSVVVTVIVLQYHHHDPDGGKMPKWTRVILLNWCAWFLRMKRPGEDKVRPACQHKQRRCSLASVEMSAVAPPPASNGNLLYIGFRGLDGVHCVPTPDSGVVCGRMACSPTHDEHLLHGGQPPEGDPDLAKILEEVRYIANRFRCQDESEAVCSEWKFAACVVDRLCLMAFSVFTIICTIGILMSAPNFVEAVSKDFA
Experimental: (§1) Human nAChR clones and concatamers were obtained from Dr. J. Lindstrom (University of Pennsylvania, Philadelphia, PA). The human resistance-to-cholinesterase 3 (RIC-3) clone, obtained from Dr. M. Treinin (Hebrew University, Jerusalem, Israel), was co-injected with α7 to improve the level and speed of α7 receptor expression without affecting the pharmacological properties of the receptors. Subsequent to linearization and purification of the plasmid cDNAs, cRNAs were prepared using the mMessage mMachine in vitro RNA transfection kit (Ambion, Austin, TX).
Oocytes were surgically removed from mature Xenopus laevis frogs (Nasco, Ft. Atkinson, WI) and injected with appropriate nAChR subunit cRNAs as described previously. Frogs were maintained in the Animal Care Service facility of the University of Florida, and all procedures were approved by the University of Florida Institutional Animal Care and Use Committee. In brief, the frog was first anesthetized for 15–20 min in 1.5 L frog tank water containing 1 g of 3-aminobenzoate methanesulfonate buffered with sodium bicarbonate. The harvested oocytes were treated with 1.25 mg/ml collagenase (Worthington Biochemicals, Freehold, NJ) for 2 h at room temperature in calcium-free Barth’s solution (88 mM NaCl, 1 mM KCl, 2.38 mM NaHCO3, 0.82 mM MgSO4, 15 mM HEPES, and 12 mg/l tetracycline, pH 7.6) to remove the follicular layer. Stage V oocytes were subsequently isolated and injected with 50 nl of 5–20 ng nAChR subunit cRNA. Recordings were carried out 1–7 days after injection.
Experiments were conducted using OpusXpress 6000A (Molecular Devices, Union City, CA). Both the voltage and current electrodes were filled with 3 M KCl. Oocytes were voltage-clamped at -60 mV. The oocytes were bath-perfused with Ringer’s solution (115 mM NaCl, 2.5 mM KCl, 1.8 mM CaCl2, 10 mM HEPES, and 1 μM atropine, pH 7.2) at 2 ml/min for α7 receptors and at 4 ml/min for other subtypes. To evaluate the effects of experimental compounds compared to ACh-evoked responses of various nAChR subtypes expressed in oocytes, baseline conditions were defined by two initial applications of ACh made before test applications. The solutions were applied from a 96-well plate via disposable tips, and the test compounds were applied alone, co-applied with ACh, or co-applied with PNU-120596. For the concentration-response study, drug applications alternated between ACh controls and experimental compounds. Unless otherwise indicated, drug applications were 12 s in duration followed by a 181 s washout period for α7 receptors and 6 s with a 241 s washout for other subtypes. A typical recording for each oocyte constituted two initial control applications of ACh, an experimental compound application, and then a follow-up control application of ACh to determine the desensitization or rundown of the receptors. The control ACh concentrations were 60 μM for α7, 100 μM for α3β4, and 30 μM for α4β2. The responses of α4β2 and α3β4-expressing cells were measured as peak current amplitudes, and the α7 data were calculated as net charge, as previously described.
(§2) Data were collected at 50 Hz, filtered at 20 Hz, analyzed by Clampfit 9.2 (Molecular Devices) and Excel 2003 (Microsoft, Redmond, WA), and normalized to the averaged peak current or net-charge response of the two initial ACh controls for each oocyte. Data were expressed as means ± SEM from at least four oocytes for each experiment and plotted by Kaleidagraph 3.0.2 (Abelbeck Software, Reading, PA). Multi-cell averages were calculated for comparisons of complex responses. To permit better comparisons between experiments each single cell response was normalized to the average of the two initial controls obtained from that cell. Averages of the normalized data were calculated for each of the 10,500 points in each of the 210 s traces (acquired at 50 Hz), as well as the standard errors for those averages.

[1] = target: T2, α6β2β3α4β2 concatamer nAChR (Homo sapiens, UniProt P17787+P43681+Q15825); parameters: method as in PMID 20923852; conditions: cited from earlier work
T2 sequence (Q15825 26-494): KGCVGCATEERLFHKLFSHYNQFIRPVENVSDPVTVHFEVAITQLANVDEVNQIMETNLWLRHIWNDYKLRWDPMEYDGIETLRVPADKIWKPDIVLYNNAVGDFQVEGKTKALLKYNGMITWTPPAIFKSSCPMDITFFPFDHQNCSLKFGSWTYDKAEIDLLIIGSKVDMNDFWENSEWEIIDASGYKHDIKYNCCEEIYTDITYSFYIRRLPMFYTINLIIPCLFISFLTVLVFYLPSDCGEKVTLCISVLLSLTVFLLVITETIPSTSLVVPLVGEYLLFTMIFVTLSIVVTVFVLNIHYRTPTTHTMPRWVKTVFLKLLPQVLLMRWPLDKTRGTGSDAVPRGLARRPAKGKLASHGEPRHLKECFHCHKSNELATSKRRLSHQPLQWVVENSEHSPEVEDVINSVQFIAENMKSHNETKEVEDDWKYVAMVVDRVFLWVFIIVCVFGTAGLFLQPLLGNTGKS
T2 sequence (P17787 26-502): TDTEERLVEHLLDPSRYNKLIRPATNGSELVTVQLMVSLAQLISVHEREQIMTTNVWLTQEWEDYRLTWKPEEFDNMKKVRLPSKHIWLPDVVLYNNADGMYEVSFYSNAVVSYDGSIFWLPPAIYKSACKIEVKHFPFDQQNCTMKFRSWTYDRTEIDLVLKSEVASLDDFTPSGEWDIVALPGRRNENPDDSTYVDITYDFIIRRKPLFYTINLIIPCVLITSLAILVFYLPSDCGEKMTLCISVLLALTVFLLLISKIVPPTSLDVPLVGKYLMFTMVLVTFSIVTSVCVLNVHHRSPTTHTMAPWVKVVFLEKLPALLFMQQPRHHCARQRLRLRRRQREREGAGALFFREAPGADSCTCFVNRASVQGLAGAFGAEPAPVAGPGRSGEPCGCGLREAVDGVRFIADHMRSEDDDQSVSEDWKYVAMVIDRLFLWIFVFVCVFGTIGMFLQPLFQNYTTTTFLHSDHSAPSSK
T2 sequence (P43681 27-627): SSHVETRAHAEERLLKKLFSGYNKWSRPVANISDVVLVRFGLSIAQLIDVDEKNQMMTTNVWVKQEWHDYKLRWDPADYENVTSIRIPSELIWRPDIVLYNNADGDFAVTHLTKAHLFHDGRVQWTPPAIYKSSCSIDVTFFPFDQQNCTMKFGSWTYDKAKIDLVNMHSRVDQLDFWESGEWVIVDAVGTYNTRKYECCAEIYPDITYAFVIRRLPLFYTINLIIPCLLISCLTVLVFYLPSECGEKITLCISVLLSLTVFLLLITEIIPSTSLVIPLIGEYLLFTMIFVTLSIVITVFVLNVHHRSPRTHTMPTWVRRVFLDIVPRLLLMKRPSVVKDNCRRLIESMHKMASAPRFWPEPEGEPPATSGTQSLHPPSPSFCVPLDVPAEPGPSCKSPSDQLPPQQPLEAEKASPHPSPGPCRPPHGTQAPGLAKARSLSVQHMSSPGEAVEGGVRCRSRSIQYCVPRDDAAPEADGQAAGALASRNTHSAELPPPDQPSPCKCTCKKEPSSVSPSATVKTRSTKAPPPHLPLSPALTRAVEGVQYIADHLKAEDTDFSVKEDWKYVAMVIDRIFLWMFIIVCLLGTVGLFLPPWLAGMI
T2 sequence (Q05901 22-458 partner): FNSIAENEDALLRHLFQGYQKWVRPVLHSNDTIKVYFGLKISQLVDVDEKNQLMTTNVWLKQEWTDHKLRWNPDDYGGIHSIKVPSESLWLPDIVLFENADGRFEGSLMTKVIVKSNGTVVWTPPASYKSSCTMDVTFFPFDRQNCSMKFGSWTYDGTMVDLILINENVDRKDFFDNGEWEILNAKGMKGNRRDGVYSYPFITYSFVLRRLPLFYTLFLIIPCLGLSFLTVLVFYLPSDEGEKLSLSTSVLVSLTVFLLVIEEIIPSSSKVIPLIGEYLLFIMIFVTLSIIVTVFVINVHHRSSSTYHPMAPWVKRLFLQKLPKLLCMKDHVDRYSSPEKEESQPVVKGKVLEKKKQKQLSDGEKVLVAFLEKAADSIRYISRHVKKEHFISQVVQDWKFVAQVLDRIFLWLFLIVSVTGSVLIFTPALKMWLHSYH

HS α4(2)β2(3) nAChR [2] = target: T3, HS α4(2)β2(3) nAChR (Homo sapiens, UniProt P17787+P43681); conditions: cited from earlier work
T3 construct: host or cells: Xenopus laevis oocytes injected with cRNA
T3 sequence (P17787+P43681 fused): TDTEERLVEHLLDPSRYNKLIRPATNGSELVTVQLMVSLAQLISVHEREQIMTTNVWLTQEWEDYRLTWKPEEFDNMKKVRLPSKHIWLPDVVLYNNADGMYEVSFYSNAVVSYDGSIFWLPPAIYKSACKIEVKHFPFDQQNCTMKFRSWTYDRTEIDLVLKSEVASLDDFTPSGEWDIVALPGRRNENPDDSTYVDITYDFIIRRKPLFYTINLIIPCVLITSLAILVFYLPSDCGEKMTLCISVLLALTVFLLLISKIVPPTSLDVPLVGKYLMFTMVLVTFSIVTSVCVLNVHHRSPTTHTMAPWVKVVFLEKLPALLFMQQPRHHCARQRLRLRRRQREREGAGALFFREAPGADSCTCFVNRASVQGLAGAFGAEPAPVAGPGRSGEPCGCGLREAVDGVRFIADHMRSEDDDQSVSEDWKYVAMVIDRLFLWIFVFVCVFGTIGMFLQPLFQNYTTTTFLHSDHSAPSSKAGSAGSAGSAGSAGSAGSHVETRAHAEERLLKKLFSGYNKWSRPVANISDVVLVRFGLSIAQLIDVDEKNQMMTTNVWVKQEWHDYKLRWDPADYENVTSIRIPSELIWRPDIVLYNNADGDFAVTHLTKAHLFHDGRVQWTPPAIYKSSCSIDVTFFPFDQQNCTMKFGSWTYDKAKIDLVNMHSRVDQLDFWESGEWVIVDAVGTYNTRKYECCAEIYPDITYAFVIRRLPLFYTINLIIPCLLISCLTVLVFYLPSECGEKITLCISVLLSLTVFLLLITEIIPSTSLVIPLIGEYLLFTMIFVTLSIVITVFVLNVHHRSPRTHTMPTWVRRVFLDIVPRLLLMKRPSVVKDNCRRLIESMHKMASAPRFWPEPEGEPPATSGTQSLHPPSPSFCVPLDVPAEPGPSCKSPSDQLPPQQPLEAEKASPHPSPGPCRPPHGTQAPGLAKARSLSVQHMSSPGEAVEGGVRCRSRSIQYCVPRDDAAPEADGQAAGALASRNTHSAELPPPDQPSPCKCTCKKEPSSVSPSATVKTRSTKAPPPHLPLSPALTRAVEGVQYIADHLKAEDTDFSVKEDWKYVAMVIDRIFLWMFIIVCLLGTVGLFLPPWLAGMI
T3 sequence (P17787 26-502): as the sequence (P17787 26-502) above

LS α4(3)β2(2) nAChR [3] = target: T4, LS α4(3)β2(2) nAChR (Homo sapiens, UniProt P17787+P43681); conditions: cited from earlier work
T4 construct: host or cells: Xenopus laevis oocytes injected with cRNA
T4 sequence (P17787+P43681 fused): as the sequence (P17787+P43681 fused) above
T4 sequence (P43681 27-627): as the sequence (P43681 27-627) above

HS α4(2)β2(3) nAChR [4] = target: T3, HS α4(2)β2(3) nAChR; assay: Two-electrode voltage clamp of Xenopus oocytes expressing high sensitivity α4β2 nAChR (β2-α4 concatamer plus β2 monomer); format: cell-based
Experimental: as §1
(§3) Oocytes were surgically removed from mature Xenopus laevis frogs (Nasco, Ft. Atkinson, WI) and injected with appropriate nAChR subunit cRNAs as described previously. Frogs were maintained in the Animal Care Service facility of the University of Florida, and all procedures were approved by the University of Florida Institutional Animal Care and Use Committee. In brief, the frog was first anesthetized for 15–20 min in 1.5 L frog tank water containing 1 g of 3-aminobenzoate methanesulfonate buffered with sodium bicarbonate. […]
(§4) Experiments were conducted using OpusXpress 6000A (Molecular Devices, Union City, CA). […] The responses of α4β2 and α3β4-expressing cells were measured as peak current amplitudes, and the α7 data were calculated as net charge, as previously described.
as §2, with “To permit better comparisons between experiments each single cell response was normalized to the average of the two initial controls obtained from that cell.” left out, “averages. […]” for “averages.”

[5] = target: T2, α6β2β3α4β2 concatamer nAChR; assay: Two-electrode voltage clamp of Xenopus oocytes expressing the α6-containing concatamer; format: cell-based
Experimental: as §1, §3, §4
as §2, with “To permit better comparisons between experiments each single cell response was normalized to the average of the two initial controls obtained from that cell.” left out

[6] = parameters: method as in PMID 20412403; conditions: 90% of betel chewers, prior to chewing; cited from earlier work
[7] = tested on: α4β2 nAChR (mixed populations formed from monomers); assay: Two-electrode voltage clamp of Xenopus oocytes expressing α4β2 nAChR formed from monomers; format: cell-based, human; conditions: 100 μM arecoline; α4 and β2 monomers
Experimental: as §1, with “TX). […]” for “TX).”
as §4
(§5) Data were collected at 50 Hz, filtered at 20 Hz, analyzed by Clampfit 9.2 (Molecular Devices) and Excel 2003 (Microsoft, Redmond, WA), and normalized to the averaged peak current or net-charge response of the two initial ACh controls for each oocyte. Data were expressed as means ± SEM from at least four oocytes for each experiment and plotted by Kaleidagraph 3.0.2 (Abelbeck Software, Reading, PA). Multi-cell averages were calculated for comparisons of complex responses. […]

LS α4(3)β2(2) nAChR [8] = target: T4, LS α4(3)β2(2) nAChR; assay: Two-electrode voltage clamp of Xenopus oocytes expressing low sensitivity α4β2 nAChR (β2-α4 concatamer plus α4 monomer); format: cell-based
Experimental: as §1, with “TX). […]” for “TX).”
as §4, §5

[9] = 100 μM arecoline co-applied with 10 μM PNU-120596, 60 μM ACh controls, n = 7
[10] = co-applied with 30 μM PNU-120596, relative to 60 μM ACh controls

## O=C1CCCN1CC#CCN1CCCC1 [oxotremorine, reference compound]
Human α7 nAChR
  activation of α7 in the presence of PNU-120596: relatively little additional activation
  activation of α7 when applied alone (absence of PAM): small but significant activation

## C[C@@H]1O[C@H](C[N+](C)(C)C)C[C@H]1O [muscarine, reference compound]
Human α7 nAChR
  activation of α7 in the presence of PNU-120596: failed to activate the receptors under either condition
  activation of α7 when applied alone (absence of PAM): failed to activate the receptors under either condition

## O=c1cccc2n1C[C@@H]1CNC[C@H]2C1 [cytisine]
[1]
  Imax relative to ACh: 0.11 ± 0.03 ^c
HS α4(2)β2(3) nAChR [2]
  Imax relative to ACh: ≤ 0.05 ^a
LS α4(3)β2(2) nAChR [3]
  Imax relative to ACh: 0.10 ± 0.02 ^a

## CC(=O)OC(C)C[N+](C)(C)C (stereo not shown) [methacholine, reference compound]
Human α7 nAChR
  activation of α7 in the presence of PNU-120596: not as active as arecoline
  activation of α7 when applied alone (absence of PAM): silent agonist

## COC(=O)C1=CCCN(C)C1 [arecoline]
HS α4(2)β2(3) nAChR [4]; HS α4β2, responses relative to ACh maximum
  EC50: 14 ± 3 µM
HS α4(2)β2(3) nAChR [4]; prolonged bath application of 3 μM arecoline, revealed with 100 μM mecamylamine, seven cells
  mecamylamine-sensitive steady-state activation relative to ACh maximum: ~1%
HS α4(2)β2(3) nAChR [4]; α4(2)β2(3)
  Imax relative to ACh: 0.054 ± 0.004
[5]; 100 μM arecoline
  response to arecoline (activation): small but significant activity; also recorded: substantially larger and well above the threshold of detection
[5]; α6-containing receptor, responses relative to ACh maximum
  EC50: 21 ± 4 µM
[5]; α6β2β3α4β2
  Imax relative to ACh: 0.056 ± 0.003
Human α7 nAChR; 60 μM ACh applied after the test application and wash
  effect on subsequent ACh-evoked responses: largely unaffected
Human α7 nAChR; 100 μM arecoline applied alone, extrapolated from ACh controls and earlier ACh concentration-response studies
  response relative to ACh maximum: less than 1%
Human α7 nAChR; [9]
  net charge of response relative to ACh controls: 37 ± 10 times
  peak amplitude of response relative to ACh controls: 9.6 ± 3.4 times
Human α7 nAChR; co-applied with 30 μM PNU-120596, read-out: EC50, net charge
  EC50: 93 ± 2 µM
Human α7 nAChR; co-applied with 30 μM PNU-120596, read-out: EC50, peak currents
  EC50: 60 ± 7 µM
Human α7 nAChR; [10]
  Imax relative to ACh controls, net charge: 49 ± 1
  Imax relative to ACh controls, peak currents: 15 ± 1
Human α7 nAChR
  activation of α7 when applied alone (absence of PAM): did not produce significant activation
Human α7 nAChR; simple co-application with 60 μM ACh, no PAM, read-out: IC50 for inhibiting 60 μM ACh-evoked responses
  IC50: > 1 mM
[6]
  residual salivary level of arecoline: at least 400 nM
[7]
  response to arecoline (activation): small but significant activity; also recorded: substantially larger and well above the threshold of detection
LS α4(3)β2(2) nAChR [8]; LS α4β2, responses relative to ACh maximum
  EC50: 75 ± 7 µM
LS α4(3)β2(2) nAChR [8]; α4(3)β2(2)
  Imax relative to ACh: 0.036 ± 0.003

## C[N+](C)(C)CCOC(N)=O [carbachol, reference compound]
Human α7 nAChR
  activation of α7 in the presence of PNU-120596: stimulated α7 receptors under both conditions
  activation of α7 when applied alone (absence of PAM): stimulated α7 receptors under both conditions

## c1cnc2cc3c(cc2n1)[C@@H]1CNC[C@H]3C1 [varenicline]
[1]
  Imax relative to ACh: 0.18 ± 0.11 ^c
HS α4(2)β2(3) nAChR [2]
  Imax relative to ACh: 0.13 ^b
LS α4(3)β2(2) nAChR [3]
  Imax relative to ACh: 0.08 ^b
